Data on 11 molecules can be found in patent US6723755B2, “Method of treating rosacea” (priority 2002, dated 2004).

The first data set deals with rosacea. The data set can be described thus: topical treatment of rosacea (related materials tested). Type of data set: in vivo, humans. Particulars: topical application.
With `CC(=O)OC1CCCCC1` [cyclohexyl acetate], the “usefulness in the present invention (treatment of rosacea)” value (“usefulness in the present invention” for short) is “not to be useful”.

As for `OC1CCCC1O` (stereo not drawn) [1,2-cyclopentanediol], the “usefulness in the present invention” value was “do not work”.

Take `CC1(C)[C@H]2C[C@H]1[C@@](C)(O)[C@@H](O)C2` [(1R,2R,3S,5S-(−))-pinanediol]: the “usefulness in the present invention” value is listed as “do not work”.

Regarding `C1CCCCC1` [cyclohexane], the “usefulness in the present invention” value is on record as “not to be useful”.

On to `ClC1CCCCC1` [cyclohexyl chloride], for which the “usefulness in the present invention” value is on record as “not to be useful”.

Turning to `OCC1(CO)CC2C=CC1C2` (stereo not drawn) [5-norborene-2,2-dimethanol], the “usefulness in the present invention” value is listed as “do not work”.

In the case of `OCCCCC1CCCCC1` [4-cyclohexyl-1-butanol], the “usefulness in the present invention” value is reported as “not to be useful”.

Take `C1=CCCCC1` [cyclohexene]: the “usefulness in the present invention” value is reported as “not to be useful”.

On to `CC1(O)CCCCC1` [1-methylcyclohexanol], for which the “usefulness in the present invention” value was “not to be useful”.

As for `CC1CCC(C(C)C)C(O)C1` (stereo not drawn) [menthol], the “usefulness in the present invention” value is on record as “not to be useful”.

For the molecule `O=C(O)C1CCCCC1` [cyclohexyl carboxylic acid], the “usefulness in the present invention” value is recorded as “not to be useful”.

A further data set relates to skin. Description: skin irritation on topical application. Type of data set: in vivo.
Conditions: not given
As for `CC1CCC(C(C)C)C(O)C1` (stereo not drawn) [menthol], the “irritation (reddening) of the skin to which it is applied” value is on record as “can irritate (and thereby redden) the skin”.
